Results as given in patent publication US20060069132A1, “Azolecarboxamide herbicides” (priority 2004, published 2006).

Key:
[1] = tested on: barnyardgrass; assay: Test A pre-/postemergence herbicide test; format: in vivo, Echinochloa crus-galli
Summary of the method: (§1)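 Sandy loam soil given preemergence directed spray; plants at 2 to 10 cm, one- to two-leaf stage, sprayed to runoff postemergence, compounds in non-phytotoxic solvent with surfactant. Injury rated visually versus untreated controls after about ten greenhouse days, 0 (no effect) to 100 (complete control); dash means not tested.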

[2] = tested on: large crabgrass; assay: Test A pre-/postemergence herbicide test; format: in vivo, Digitaria sanguinalis
Summary of the method: as §1

[3] = tested on: giant foxtail; assay: Test A pre-/postemergence herbicide test; format: in vivo, Setaria faberi
Summary of the method: as §1

[4] = tested on: morningglory; assay: Test A pre-/postemergence herbicide test; format: in vivo, Ipomoea spp.
Summary of the method: as §1

[5] = tested on: redroot pigweed; assay: Test A pre-/postemergence herbicide test; format: in vivo, Amaranthus retroflexus
Summary of the method: as §1

[6] = tested on: velvetleaf; assay: Test A pre-/postemergence herbicide test; format: in vivo, Abutilon theophrasti
Summary of the method: as §1

[7] = tested on: barnyardgrass; assay: Test B pre-/postemergence herbicide test; format: in vivo, Echinochloa crus-galli
Summary of the method: (§2)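 Evaluation is visual, comparing treated with control plants on a scale where 0 means no effect and 100 means full control. Treatments were preemergence, or postemergence on seedlings 2–18 cm tall, and held 13–15 days in the greenhouse.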

[8] = tested on: Surinam grass; assay: Test B pre-/postemergence herbicide test; format: in vivo, Urochloa decumbens
Summary of the method: (§3)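 Plants compared with untreated controls 13–15 days post-treatment and given a visual 0–100 injury score. Applications: preemergence to seeds; postemergence at 1- to 4-leaf (2–18 cm); paddy species flooded, 2-leaf stage. Vehicle non-phytotoxic, surfactant included.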

[9] = tested on: cocklebur; assay: Test B pre-/postemergence herbicide test; format: in vivo, Xanthium strumarium
Summary of the method: as §2

[10] = tested on: corn; assay: Test B pre-/postemergence herbicide test; format: in vivo, Zea mays
Summary of the method: as §3

[11] = tested on: large crabgrass; assay: Test B pre-/postemergence herbicide test; format: in vivo, Digitaria sanguinalis
Summary of the method: as §3

[12] = tested on: giant foxtail; assay: Test B pre-/postemergence herbicide test; format: in vivo, Setaria faberi
Summary of the method: as §3

[13] = tested on: lambsquarters; assay: Test B pre-/postemergence herbicide test; format: in vivo, Chenopodium album
Summary of the method: as §3

[14] = tested on: morningglory; assay: Test B pre-/postemergence herbicide test; format: in vivo, Ipomoea coccinea
Summary of the method: as §2

[15] = tested on: pigweed; assay: Test B pre-/postemergence herbicide test; format: in vivo, Amaranthus retroflexus
Summary of the method: as §3

[16] = tested on: velvetleaf; assay: Test B pre-/postemergence herbicide test; format: in vivo, Abutilon theophrasti
Summary of the method: as §3

[17] = tested on: blackgrass; assay: Test B postemergence herbicide test; format: in vivo, Alopecurus myosuroides
Summary of the method: (§4)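 Each value is a visual 0–100 response rating taken against controls 13 to 15 days after treatment in the greenhouse. Plants received formulated chemical postemergence at the 1- to 4-leaf stage or, in flooded paddy, at the 2-leaf stage.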

[18] = tested on: wheat; assay: Test B postemergence herbicide test; format: in vivo, Triticum aestivum; parameters: key to Wheat plant response rating: 0 = no effect, 100 = complete control
Summary of the method: (§5)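 Scale 0–100: zero equals no visible effect, 100 complete control, judged by eye relative to controls. Timing: 13 to 15 days in greenhouse post-treatment. Growth stage at spraying: two leaves (paddy) or one to four leaves, 2–18 cm (postemergence).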

[19] = tested on: wild oat; assay: Test B postemergence herbicide test; format: in vivo, Avena fatua
Summary of the method: as §5

[20] = tested on: rice; assay: Test B flooded paddy test; format: in vivo, Oryza sativa; conditions: 1000 g ai/ha, scale 0 to 100 (0 no effect, 100 complete control)
Summary of the method: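 Formulated test chemicals went onto postemergence plants measuring 2 to 18 cm, at one to four leaves. For the paddy assay, species had reached two leaves. Scoring took place 13–15 days later by eye, relative to untreated plants, using 0 for no effect up to 100 for full control.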

[21] = tested on: small flower umbrella sedge; assay: Test B flooded paddy test; format: in vivo, Cyperus difformis; conditions: 1000 g ai/ha, scale 0 to 100 (0 no effect, 100 complete control)
Summary of the method: as §4

[22] = tested on: ducksalad; assay: Test B flooded paddy test; format: in vivo, Heteranthera limosa; conditions: 1000 g ai/ha, scale 0 to 100 (0 no effect, 100 complete control)
Summary of the method: as §4

[23] = tested on: barnyardgrass; assay: Test B flooded paddy test; format: in vivo, Echinochloa crus-galli; conditions: 1000 g ai/ha, scale 0 to 100 (0 no effect, 100 complete control)
Summary of the method: as §4

[24] = Postemergence, 500 g ai/ha, 0 to 100 scale, 0 no effect, 100 complete control
[25] = Postemergence, 2000 g ai/ha, 0 to 100 scale, 0 no effect, 100 complete control
[26] = Preemergence, 500 g ai/ha, visual rating, 0 to 100 scale (0 no effect, 100 complete control)
[27] = Preemergence, 2000 g ai/ha, visual rating, 0 to 100 scale (0 no effect, 100 complete control)
[28] = preemergence, 500 g ai/ha, visual injury, 0 to 100 scale (0 no effect, 100 complete control)
[29] = 500 g ai/ha; visual rating 0-100, 0 no effect, 100 complete control; preemergence
[30] = postemergence, 125 g ai/ha; visual rating, scale 0 (no effect) to 100 (complete control)
[31] = postemergence, 500 g ai/ha; visual rating, scale 0 (no effect) to 100 (complete control)
[32] = preemergence, 125 g ai/ha; 0 to 100 scale, 0 is no effect, 100 is complete control
[33] = 125 g ai/ha; 0 is no effect, 100 is complete control; preemergence
[34] = 125 g ai/ha; visual rating, scale 0 (no effect) to 100 (complete control); postemergence
[35] = 500 g ai/ha; visual rating, 0 = no effect, 100 = complete control; preemergence
[36] = postemergence, 500 g ai/ha; scale 0 to 100, 0 is no effect, 100 is complete control

CCCCNS(=O)(=O)c1cccc(NC(=O)c2cc(C(C)(C)C)nn2C)c1 [Compound 125]
Barnyardgrass plant response rating [1, 24]: 0 | Plant response rating, Barnyardgrass [1, 25]: 0 | Barnyardgrass plant response rating [1, 26]: 0 | Barnyardgrass plant response rating [1, 27]: 0 | Crabgrass, Large plant response rating [2, 24]: 0 | Plant response rating, Crabgrass, Large [2, 25]: 0 | Crabgrass, Large plant response rating [2, 26]: 0 | Crabgrass, Large plant response rating [2, 27]: 0 | Foxtail, Giant plant response rating [3, 24]: 0 | Plant response rating, Foxtail, Giant [3, 25]: 0 | Foxtail, Giant plant response rating [3, 26]: 0 | Foxtail, Giant plant response rating [3, 27]: 0 | Morningglory plant response rating [4, 24]: 0 | Plant response rating, Morningglory [4, 25]: 0 | Morningglory plant response rating [4, 26]: 0 | Morningglory plant response rating [4, 27]: 0 | Pigweed plant response rating [5, 24]: 20 | Plant response rating, Pigweed [5, 25]: 20 | Pigweed plant response rating [5, 27]: 0 | Pigweed plant response rating [5, 28]: 0 | Velvetleaf plant response rating [6, 24]: 0 | Plant response rating, Velvetleaf [6, 25]: 0 | Velvetleaf plant response rating [6, 27]: 0 | Velvetleaf plant response rating [6, 28]: 0 | Plant response rating, Barnyardgrass [7, 29]: 0 | Barnyardgrass plant response rating [7, 30]: 0 | Barnyardgrass plant response rating [7, 31]: 0 | Plant response rating, Barnyardgrass [7, 32]: 0 | Plant response rating, Surinam Grass [8, 29]: 0 | Surinam Grass plant response rating [8, 30]: 0 | Surinam Grass plant response rating [8, 31]: 10 | Plant response rating, Surinam Grass [8, 32]: 0 | Plant response rating, Cocklebur [9, 29]: 0 | Cocklebur plant response rating [9, 30]: 0 | Cocklebur plant response rating [9, 31]: 0 | Plant response rating, Cocklebur [9, 32]: 0 | Plant response rating, Corn [10, 29]: 0 | Corn plant response rating [10, 30]: 0 | Corn plant response rating [10, 31]: 0 | Plant response rating, Corn [10, 32]: 0 | Plant response rating, Crabgrass, Large [11, 29]: 0 | Crabgrass, Large plant response rating [11, 30]: 0 | Crabgrass, Large plant response rating [11, 31]: 0 | Plant response rating, Crabgrass, Large [11, 32]: 0 | Plant response rating, Foxtail, Giant [12, 29]: 0 | Foxtail, Giant plant response rating [12, 30]: 0 | Foxtail, Giant plant response rating [12, 31]: 0 | Plant response rating, Foxtail, Giant [12, 32]: 0 | Plant response rating, Lambsquarters [13, 29]: 0 | Lambsquarters plant response rating [13, 30]: 0 | Lambsquarters plant response rating [13, 31]: 20 | Plant response rating, Lambsquarters [13, 32]: 0 | Morningglory plant response rating [14, 30]: 0 | Morningglory plant response rating [14, 31]: 0 | Plant response rating, Morningglory [14, 32]: 0 | Plant response rating, Pigweed [15, 29]: 0 | Pigweed plant response rating [15, 30]: 0 | Pigweed plant response rating [15, 31]: 0 | Plant response rating, Pigweed [15, 32]: 0 | Plant response rating, Velvetleaf [16, 29]: 0 | Velvetleaf plant response rating [16, 30]: 0 | Velvetleaf plant response rating [16, 31]: 0 | Plant response rating, Velvetleaf [16, 32]: 0 | Blackgrass plant response rating [17, 30]: 0 | Blackgrass plant response rating [17, 31]: 0 | Wheat plant response rating [18, 30]: 0 | Wheat plant response rating [18, 31]: 0 | Oat, Wild plant response rating [19, 30]: 0 | Oat, Wild plant response rating [19, 31]: 0 | Rice plant response rating ([20]; visual rating, 13 to 15 days): 0 | Sedge, Umbrella plant response rating ([21]; visual rating, 13 to 15 days): 0 | Ducksalad plant response rating ([22]; visual rating, 13 to 15 days): 0 | Barnyardgrass plant response rating ([23]; visual rating, 13 to 15 days): 0

CCn1nc(C(C)(C)C)cc1C(=O)Nc1cc(OC)ccc1F [Compound 347]
Barnyardgrass plant response rating [1, 24]: 0 | Plant response rating, Barnyardgrass [1, 25]: 0 | Barnyardgrass plant response rating [1, 27]: 0 | Barnyardgrass plant response rating [1, 28]: 0 | Crabgrass, Large plant response rating [2, 24]: 0 | Plant response rating, Crabgrass, Large [2, 25]: 0 | Crabgrass, Large plant response rating [2, 27]: 0 | Crabgrass, Large plant response rating [2, 28]: 0 | Foxtail, Giant plant response rating [3, 24]: 0 | Plant response rating, Foxtail, Giant [3, 25]: 0 | Foxtail, Giant plant response rating [3, 27]: 0 | Foxtail, Giant plant response rating [3, 28]: 0 | Morningglory plant response rating [4, 24]: 0 | Plant response rating, Morningglory [4, 25]: 0 | Morningglory plant response rating [4, 27]: 0 | Morningglory plant response rating [4, 28]: 0 | Pigweed plant response rating [5, 24]: 0 | Plant response rating, Pigweed [5, 25]: 0 | Pigweed plant response rating [5, 27]: 0 | Pigweed plant response rating [5, 28]: 0 | Velvetleaf plant response rating [6, 24]: 0 | Plant response rating, Velvetleaf [6, 25]: 0 | Velvetleaf plant response rating [6, 27]: 0 | Velvetleaf plant response rating [6, 28]: 0 | Plant response rating (0 to 100 scale), Barnyardgrass [7, 33]: 0 | Barnyardgrass plant response rating [7, 34]: 0 | Plant response rating, Barnyardgrass [7, 35]: 0 | Barnyardgrass plant response rating [7, 36]: 0 | Plant response rating (0 to 100 scale), Surinam Grass [8, 33]: 0 | Surinam Grass plant response rating [8, 34]: 0 | Plant response rating, Surinam Grass [8, 35]: 0 | Surinam Grass plant response rating [8, 36]: 0 | Plant response rating (0 to 100 scale), Cocklebur [9, 33]: 0 | Cocklebur plant response rating [9, 34]: 0 | Plant response rating, Cocklebur [9, 35]: 0 | Cocklebur plant response rating [9, 36]: 0 | Plant response rating (0 to 100 scale), Corn [10, 33]: 0 | Corn plant response rating [10, 34]: 0 | Plant response rating, Corn [10, 35]: 0 | Corn plant response rating [10, 36]: 0 | Plant response rating (0 to 100 scale), Crabgrass, Large [11, 33]: 0 | Crabgrass, Large plant response rating [11, 34]: 0 | Plant response rating, Crabgrass, Large [11, 35]: 0 | Crabgrass, Large plant response rating [11, 36]: 0 | Plant response rating (0 to 100 scale), Foxtail, Giant [12, 33]: 0 | Foxtail, Giant plant response rating [12, 34]: 0 | Plant response rating, Foxtail, Giant [12, 35]: 0 | Foxtail, Giant plant response rating [12, 36]: 0 | Plant response rating (0 to 100 scale), Lambsquarters [13, 33]: 0 | Lambsquarters plant response rating [13, 34]: 10 | Plant response rating, Lambsquarters [13, 35]: 0 | Lambsquarters plant response rating [13, 36]: 10 | Plant response rating (0 to 100 scale), Morningglory [14, 33]: 0 | Morningglory plant response rating [14, 34]: 0 | Plant response rating, Morningglory [14, 35]: 0 | Morningglory plant response rating [14, 36]: 10 | Plant response rating (0 to 100 scale), Pigweed [15, 33]: 0 | Pigweed plant response rating [15, 34]: 0 | Plant response rating, Pigweed [15, 35]: 0 | Pigweed plant response rating [15, 36]: 10 | Plant response rating (0 to 100 scale), Velvetleaf [16, 33]: 0 | Velvetleaf plant response rating [16, 34]: 0 | Velvetleaf plant response rating [16, 36]: 0 | Blackgrass plant response rating [17, 34]: 30 | Blackgrass plant response rating [17, 36]: 30 | Wheat plant response rating [18, 34]: 0 | Wheat plant response rating [18, 36]: 0 | Oat, Wild plant response rating [19, 34]: 0 | Oat, Wild plant response rating [19, 36]: 20 | Rice plant response rating [20]: 0 | Sedge, Umbrella plant response rating [21]: 0 | Ducksalad plant response rating [22]: 0 | Barnyardgrass plant response rating [23]: 0
